Measurements: patent US20120095022A1, “DERIVATIVES OF 10-AMINO-1,2,3,4-TETRAHYDROPYRIDO[2,1-A]ISOINDOL-6(10BH)-ONES, METHOD FOR PREPARATION THEREOF AND THERAPEUTIC USES THEREOF” (UNIVERSITE D'ORLEANS, priority 2009, published 2012)

Legend:
[1] = tested on: Huh7 (liver); assay: Cytotoxicity on human cells, automated nuclei counting: Huh7; assay type: cell-based; conditions: Huh-7, exposed 24 h to 48 h, 0.1 to 25 μM
Protocol: (§1) Cytotoxicity: This method is based on an automated imaging analysis. 4.10^3 cells were cultivated on 96-well plates and left for 24 hours so as to bind, to spread and proliferate.
(§2) All the cell lines were cultivated in a DMEM or RPMI (Invitrogen) medium. All these media were completed with antibiotics (penicillin-streptomycin) (Lonza) and 10% by volume of fetal calf serum (Invitrogen). The cells were cultivated at 37° C. with 5% of CO2. The treatments with the molecules to be tested were carried out with increasing concentrations. The control experiments were also carried out by using suitable dilutions of DMSO (maximum 1% DMSO).

[2] = tested on: PC3 (prostate); assay: Cytotoxicity on human cells, automated nuclei counting: PC3; assay type: cell-based; conditions: PC-3, exposed 24 h to 48 h, 0.1 to 25 μM
Protocol: as §1, §2

[3] = tested on: HCT 116 (colon); assay: Cytotoxicity on human cells, automated nuclei counting: HCT 116; assay type: cell-based; conditions: HCT 116 cells, exposed 24 h to 48 h, 0.1 to 25 μM
Protocol: as §1, §2

[4] = tested on: NCI (lung); assay: Cytotoxicity on human cells, automated nuclei counting: NCI; assay type: cell-based; conditions: exposed 24 h to 48 h, 0.1 to 25 μM
Protocol: as §1, §2

[5] = tested on: Caco (colon); assay: Cytotoxicity on human cells, automated nuclei counting: Caco; assay type: cell-based; conditions: exposed 24 h to 48 h, 0.1 to 25 μM
Protocol: as §1, §2

[6] = tested on: fibroblast; assay: Cytotoxicity on human cells, automated nuclei counting: fibroblast; assay type: cell-based; conditions: exposed 24 h to 48 h, 0.1 to 25 μM
Protocol: as §1, §2

[7] = biological target: T1, CDK5/D25 (Homo sapiens, UniProt Q00535); assay: CDK5 kinase inhibition (33P-ATP, histone H1); assay type: biochemical; conditions: buffer C, 30° C., 15 μM ATP, read-out: IC50 μM Kinases CDK5
T1 construct: made in house
T1 sequence (Q00535 whole entry): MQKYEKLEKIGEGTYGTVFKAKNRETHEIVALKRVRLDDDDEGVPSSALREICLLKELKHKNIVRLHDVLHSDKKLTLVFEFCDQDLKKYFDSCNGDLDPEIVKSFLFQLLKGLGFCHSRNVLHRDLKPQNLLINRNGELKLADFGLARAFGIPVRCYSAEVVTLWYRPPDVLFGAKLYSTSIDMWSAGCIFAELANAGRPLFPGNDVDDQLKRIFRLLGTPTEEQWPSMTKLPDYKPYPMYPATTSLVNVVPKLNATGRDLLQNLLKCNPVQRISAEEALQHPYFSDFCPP
T1 sequence (Q15078 99-307 partner limits assumed): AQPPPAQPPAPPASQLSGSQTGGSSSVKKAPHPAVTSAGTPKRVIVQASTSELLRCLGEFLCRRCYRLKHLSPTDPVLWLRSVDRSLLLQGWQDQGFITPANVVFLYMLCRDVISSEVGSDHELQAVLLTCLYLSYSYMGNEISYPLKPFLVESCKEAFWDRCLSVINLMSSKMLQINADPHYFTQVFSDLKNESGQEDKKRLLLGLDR
Protocol: The protein kinase inhibition activities of the compounds of the invention are tested according to the following general procedure:
Buffer C: 60 mM β-glycerophosphate, 15 mM p-nitrophenyl-phosphate, 25 mM Mops (pH 7.2), 5 mM EGTA, 15 mM mgCl2, 1 mM DTT, 1 mM sodium vanadate and 1 mM phenylphosphate.
The controls were made with suitable dilutions of DMSO.
ATP (3.000 Ci/mmol.; 10 mCi/mL) in a final volume of 30 μL. After 30 mins of incubation at 30° C., 25 μL of supernatant aliquots were deposited on phosphocellulose Whatman P81 paper pieces of 2.5×3 cm, and after 20 seconds, the filters were washed five times (for at least 5 minutes each time) in a solution of 10 mL of phosphoric acid/1 litre of water. The wet filters were counted in the presence of 1 mL of scintillation fluid ACS (Amersham).

[8] = tested on: MDA-MB 231 (breast); assay: Cytotoxicity on human cells, automated nuclei counting: MDA-MB 231; assay type: cell-based; conditions: MDA-MB 231 cells, exposed 24 h to 48 h, 0.1 to 25 μM
Protocol: as §1, §2

| Compound | melting point [°C] | IC50 [1] [µM] | IC50 [2] [µM] | IC50 [3] [µM] | IC50 [4] [µM] | IC50 [5] [µM] | IC50 [6] [µM] | IC50 [7] [µM] | IC50 [8] [µM] |
| --- | --- | --- | --- | --- | --- | --- | --- | --- | --- |
| O=C(Nc1cccc(Br)n1)Nc1cccc2c1C1CC3(CCN1C2=O)SCCS3 (stereo not drawn) [Compound 21, 1-(6-Bromopyridin-2-yl)-3-(6′-oxo-3′,4′,6′,10b′-tetrahydro-1′H-spiro[[1,3]dithiolane-2,2′-pyrido[2,1-a]isoindole]-10′-yl)urea] | 170 | 2 | 4 | 2.5 | 6 | 3 | 9 | > 10 | 4 |
| O=C(Nc1ccccn1)Nc1cccc2c1C1CC3(CCN1C2=O)OCCO3 (stereo not drawn) [Compound 28, 1-(6′-Oxo-3′,4′,6′,10b′-tetrahydro-1′H-spiro[[1,3]dioxolane-2,2′-pyrido[2,1-a]isoindole]-10′-yl)-3-(pyridin-2-yl)urea] | – | 1 | 1.5 | 0.6 | 4 | 0.6 | 3 | 11 | 1 |
| O=C(Nc1cnccn1)Nc1cccc2c1C1CC3(CCN1C2=O)OCCO3 (stereo not drawn) [Compound 29, 1-(6′-Oxo-3′,4′,6′,10b′-tetrahydro-1′H-spiro[[1,3]dioxolane-2,2′-pyrido[2,1-a]isoindole]-10′-yl)-3-(pyrazin-2-yl)urea] | – | 3 | 5 | 1.5 | 8 | 5 | 10 | 7.1 | 3 |
| O=C(Nc1ccccn1)Nc1cccc2c1C1CCCCN1C2=O (stereo not drawn) [Compound 30, 1-(6-oxo-1,2,3,4,6,10b-hexahydropyrido[2,1-a]isoindol-10-yl)-3-(pyridin-2-yl)urea] | – | 0.03 | 0.1 | – | 0.2 | 0.1 | 0.2 | – | 0.05 |
| O=C(Nc1cnccn1)Nc1cccc2c1C1CCCCN1C2=O (stereo not drawn) [Compound 38, 1-(6-Oxo-1,2,3,4,6,10b-hexahydropyrido[2,1-a]isoindol-10-yl)-3-(pyrazin-2-yl)urea] | 215 | 0.2 | 0.3 | 0.1 | 0.8 | 1 | 0.8 | – | 0.2 |
| O=C1c2cccc(NC(=S)Nc3ncccc3Br)c2C2CCCCN12 (stereo not drawn) [Compound 72, 1-(3-bromopyridin-2-yl)-3-(6-oxo-1,2,3,4,6,10b-hexahydropyrido[2,1-a]isoindol-10-yl)thiourea] | 180 | – | – | – | – | – | – | – | – |
| Cc1ccc(NC(=S)Nc2cccc3c2C2CCCCN2C3=O)nc1 (stereo not drawn) [Compound 73, 1-(5-methylpyridin-2-yl)-3-(6-oxo-1,2,3,4,6,10b-hexahydropyrido[2,1-a]isoindol-10-yl)thiourea] | 232 | – | – | – | – | – | – | – | – |
| O=C(Nc1cc[nH]n1)Nc1cccc2c1C1CC3(CCN1C2=O)SCCS3 (stereo not drawn) [Compound 77, 1-(6′-Oxo-3′,4′,6′,10b′-tetrahydro-1′H-spiro[[1,3]dithiolane-2,2′-pyrido[2,1-a]isoindole]-10′-yl)-3-(1H-pyrazol-3-yl)urea] | 184 | – | – | – | – | – | – | – | – |
| Nc1ccn(C(=O)Nc2cccc3c2C2CCCCN2C3=O)n1 (stereo not drawn) [Compound 78, 3-Amino-N-(6-oxo-1,2,3,4,6,10b-hexahydropyrido[2,1-a]isoindol-10-yl)-1H-pyrazole-1-carboxamide] | 166 | – | – | – | – | – | – | – | – |
| O=C(Nc1cccc2c1C1CCCCN1C2=O)NN1CCCCC1 (stereo not drawn) [Compound 85, N-(6-Oxo-1,2,3,4,6,10b-hexahydropyrido[2,1-a]isoindol-10-yl)-N′-(piperidin-1-yl)urea] | 166 | – | – | – | – | – | – | – | – |
| O=C(Nc1ccccc1)Nc1cccc2c1C1CCCCN1C2=O (stereo not drawn) [Compound 87, N-(6-Oxo-1,2,3,4,6,10b-hexahydropyrido[2,1-a]isoindol-10-yl)-N′-phenylurea] | 172 | – | – | – | – | – | – | – | – |
| O=C(NCc1ccccc1)Nc1cccc2c1C1CCCCN1C2=O (stereo not drawn) [Compound 92, N-Benzyl-N′-(6-oxo-1,2,3,4,6,10b-hexahydropyrido[2,1-a]isoindol-10-yl)urea] | 183 | – | – | – | – | – | – | – | – |
| O=C1CCN2C(=O)c3cccc(NC(=O)Nc4ccccn4)c3C2C1 (stereo not drawn) [Compound 97, 1-(2,6-Dioxo-1,2,3,4,6,10b-hexahydropyrido[2,1-a]isoindol-10-yl)-3-(pyridin-2-yl)urea] | 254 | 3 | 5 | 2 | 2 | 7 | 6 | 3.6 | 3 |
| O=C1CCN2C(=O)c3cccc(NC(=O)Nc4cnccn4)c3C2C1 (stereo not drawn) [Compound 98, 1-(2,6-Dioxo-1,2,3,4,6,10b-hexahydropyrido[2,1-a]isoindol-10-yl)-3-(pyrazin-2-yl)urea] | – | > 25 | > 25 | 20 | > 25 | 25 | > 25 | > 10 | > 25 |
| O=C1CCN2C(=O)c3cccc(-n4c(=O)[nH]c5cnccc5c4=O)c3C2C1 (stereo not drawn) [Compound 99, 10-(2,4-dioxo-1,2-dihydropyrido[3,4-d]pyrimidin-3(4H)-yl)-1,3,4,10b-tetrahydropyrido[2,1-a]isoindole-2,6-dione] | 230 | – | – | – | – | – | – | – | – |
| Cc1cccnc1NC(=O)Nc1cccc2c1C1CC(=O)CCN1C2=O (stereo not drawn) [Compound 100, 1-(2,6-dioxo-1,2,3,4,6,10b-hexahydropyrido[2,1-a]isoindol-10-yl)-3-(3-methylpyridin-2-yl)urea] | > 260 | – | – | – | – | – | – | – | – |
| Cc1cccc(NC(=O)Nc2cccc3c2C2CC(=O)CCN2C3=O)n1 (stereo not drawn) [Compound 101, 1-(2,6-dioxo-1,2,3,4,6,10b-hexahydropyrido[2,1-a]isoindol-10-yl)-3-(6-methyl-pyridin-2-yl)urea] | 226 to 228 | – | – | – | – | – | – | – | – |
| COc1cc(NC(=O)Nc2cccc3c2C2CC(=O)CCN2C3=O)nc2ccccc12 (stereo not drawn) [Compound 102, 1-(2,6-dioxo-1,2,3,4,6,10b-hexahydropyrido[2,1-a]isoindol-10-yl)-3-(4-methoxyquinolin-2-yl)urea] | 223 to 225 | – | – | – | – | – | – | – | – |
| O=C(Nc1ccccn1)Nc1cccc2c1C1C[C@@H](O)CCN1C2=O (stereo partly drawn) [Compound 104, 1-((2S)-2-Hydroxy-6-oxo-1,2,3,4,6,10b-hexahydropyrido[2,1-a]iso-indol-10-yl)-3-(pyridin-2-yl)urea] | 220 | 2 | 3 | 1 | 3 | 7 | 2 | 2.1 | 3 |
| Cc1cccnc1NC(=O)Nc1cccc2c1C1CC(O)CCN1C2=O (stereo not drawn) [Compound 107, 1-(2-Hydroxy-6-oxo-1,2,3,4,6,10b-hexahydropyrido[2,1-a]isoindol-10-yl)-3-(3-methylpyridin-2-yl)urea] | 204 to 206 | 5 | 5 | 1.5 | 7 | 12 | 6 | 0.63 | 8 |
| Cc1cccc(NC(=O)Nc2cccc3c2C2CC(O)CCN2C3=O)n1 (stereo not drawn) [Compound 108, 1-(2-Hydroxy-6-oxo-1,2,3,4,6,10b-hexahydropyrido[2,1-a]isoindol-10-yl)-3-(6-methylpyridin-2-yl)urea] | 240 to 242 | 3 | 2 | 3 | 10 | 15 | 10 | 1 | 8 |
| O=C1c2cccc(-n3c(=O)[nH]c4cnccc4c3=O)c2C2CC3(CCN12)OCCO3 (stereo not drawn) [Compound 113, 3-(6′-oxo-3′,4′,6′,10b′-tetrahydro-1′H-spiro[[1,3]dioxolane-2,2′-pyrido[2,1-a]isoindole]-10′-yl)pyrido[3,4-d]pyrimidine-2,4(1H,3H)-dione] | 204 | – | – | – | – | – | – | – | – |
| O=C1c2cccc(-n3c(=O)[nH]c4ncccc4c3=O)c2C2CCCCN12 (stereo not drawn) [Compound 117, 3-(6-Oxo-1,2,3,4,6,10b-hexahydro-pyrido[2,1-a]isoindol-10-yl)-1H-pyrido[2,3-d]pyrimidine-2,4-dione] | > 290 | – | – | – | – | – | – | – | – |
